{"source": "patent US20130095059A1", "about": "“INHALED NO DONOR KMUPS DERIVATIVE PREVENTING ALLERGIC PULMONARY VASCULAR AND BRONCHIAL INFLAMMATION VIA SUPPRESSED CYTOKINES, INOS AND INFLAMMATORY CELL COUNTS IN ASTHMA MODEL” (priority 2007, published 2013)", "key": {"pulmonary artery rings": {"test_system": "pulmonary artery rings", "experiment": "Isometric force of 5-HT-constricted pulmonary artery rings", "set-up": "species or system Wistar rats", "procedure": "Wistar rats were euthanized with an overdose of sodium pentobarbital (60 mg/kg, i.p.) before open-chest surgery. During surgery, a thoracic retractor was used to help isolate the pulmonary artery. […] The pulmonary artery ring preparations were stretched to a basal tension of 1 g and allowed to equilibrate for 60-90 min. After equilibration, pulmonary artery rings were constricted with 5-HT (10 μM) to prime the tissues and check the functionality of the endothelium (at least 80% relaxation in response to acetylcholine 1 μM). […] The effect of KMUP-1 on NOS and 5-HT was also studied in vessels pre-incubated with the NOS inhibitor L-NAME (100 μM) 20 min before 5-HT administration. The percentage of relaxation was estimated using the following equation: relaxation (%)=(maximal contraction−relaxation level)/(maximal contraction-basal level)×100. Data was obtained from serotonin-induced maximal contractile responses in pulmonary artery."}, "sGCα1": {"test_system": "sGCα1", "experiment": "Ovalbumine model, sGCα1 expression", "format": "in vivo, BALB/c mice", "conditions": "28-day experiment; nebulization", "procedure": "(§1) In this long-term experiment, 6-8 week old BALB/c female mice were sensitized on days 1 and 8 by intra-peritoneal injection (i.p.) of ovalbumine (10 μg) (Sigma-Aldrich, Schnelldorf, Germany) adsorbed to 2 mg aluminum hydroxide (AlumInject; Perbio, Erembodegem, Belgium). Mice were divided into three groups. In Group 1, a control group was only exposed to saline nebulization by aerosol. The other 2 groups were subjected to ovalbumine (1%) nebulization. Before each challenge with ovalbumine, mice were either exposed to saline nebulization (Group 2) or KMUP-1 nebulization (5 mM) for 30 min by aerosol (Group 3).\nThe lung tissues were homogenized, washed with PBS and incubated in lysis buffer in addition to a protease inhibitor cocktail (Sigma, St. Louis, Mo.) to obtain extracts of lung proteins. A Western blot analysis was performed as described previously (Wu B N, et al., 2006). The samples were loaded to 10% SDS-PAGE gels and were separated at 120 V for 90 min. The blots were incubated with anti-eNOS antibody diluted at a ratio of 1:500, anti-sGCα1 antibody diluted at a ratio of 1:2000, anti-PKG antibody diluted at a ratio of 1:500, anti-VCAM-1 antibody diluted at a ratio of 1:500, anti-ICAM-1 antibody diluted at a ratio of 1:500, and anti-MMP-9 antibody diluted at a ratio of 1:600 overnight at 4° C. […]"}, "BALF cells": {"test_system": "BALF cells", "experiment": "Ovalbumine model, bronchoalveolar lavage cell counts", "format": "in vivo, BALB/c mice", "conditions": "24 hrs after the last ovalbumine challenge; nebulization", "procedure": "as §1\nAfter the sacrifice of mice, a cannula was placed in the trachea for bronchoalveolar lavage by gentle manual aspiration, using cold PBS-EDTA (0.05 mM, 1 ml) (Calbiochem, Darmstadt, Germany) as previously described (Cataldo D D, et al., 2002). The broncho alveolar lavage fluid (BALF) was centrifuged at 4° C. for 10 min (1200 rpm). The supernatant was frozen at −80° C. for protein assessment and the cell pellet was resuspended in PBS-EDTA (0.05 mM, 1 ml). Total cell counts were performed manually using a thoma chamber. The differential cell counts were performed using morphologic criteria on cytocentrifuged preparations (Cytospin) after staining with Diff-Quick (Dade, Belgium). Differential cell counts were performed by one blinded observer unaware of the experimental treatment."}, "RhoA": {"test_system": "RhoA", "experiment": "5-HT-induced RhoA translocation in PASMCs", "format": "cell-based, Wistar rats", "conditions": "24 h treatment, 1-100 μM", "procedure": "Previous reports have shown that the active form of RhoA is translocated from the cytosol to the plasma membrane, where it activates Rho kinase. Therefore, the membrane/cytosol ratio of RhoA is considered a measure of RhoA activity. The cytosol and membrane protein of PASMCs were extracted with a CNM (cytosol, nuclear, membrane) kit. To assess membrane trans-location of RhoA, protein in membrane and cytosolic fractions was determined by standard Western blot analysis using mouse monoclonal anti-RhoA antibody (1:1000 dilution, Santa Cruz Biotechnology) and a peroxidase-labeled anti-mouse immunoglobulin (Ig) G antibody (1:1000 dilution, Santa Cruz Biotechnology, CA, USA). The relative density of membrane to cytosolic RhoA was determined using NIH imaging software.\nThe expression of RhoA/ROCK and phosphorylation of ERK1/2 and AKT kinase in PASMCs were assessed by incubating the PASMCs with 5-HT (10 μM) for 15 min (peak time for RhoA/ROCK, ERK1/2 and AKT phosphorylation) and 5-HTT for 10 min (peak time for 5-HTT) after KMUP-1 (1-100 μM) was added to the culture of PASMCs for 24 h."}, "5-HT": {"test_system": "5-HT", "experiment": "Plasma 5-HT levels in MCT-treated rats (Serotonin EIA)", "format": "in vivo, Wistar rats", "conditions": "MCT-PAH rats, non-treated MCT-PAH 4.2±0.7", "procedure": "The experiments were performed in adult male Wistar rats (300 to 350 g) in accordance with institutional guidelines after approval by the ethical review committee. PAH development and pulmonary expression of 5-HTT were examined in rats after 60 mg/kg single injection (i.p.) of monocrotaline (MCT). To assess the potential preventive effect of KMUP-1 on MCT-induced PAH and associated proliferation, we assigned rats at random to 2 groups of 8 animals which received KMUP-1 at 5 mg/kg/day p.o or 1 mg/kg/day i.p. All treatments were given once a day for 3 weeks after a single MCT injection (60 mg/kg i.p.) (Abe et al., 2004). On day 21, rats were anesthetized and pulmonary artery blood pressure (MPAP) was recorded as previously described. Lung tissues were dissected for Western blotting and immunohistochemistry.\nAfter MCT-treatment, rats acquired severe PAH and received sodium pentobarbital (40 mg/kg, i.p.) at day 21 for surgical anesthesia and measurement of MPAP (Chung et al., 2010). Blood samples (1.0 mL) were obtained from the heart. Blood was transferred to plastic tubes that included EDTA and was centrifuged at 100 g for 20 min. The plasma was transferred to tubes and stored at −80° C. until analysis. Plasma 5-HT levels were determined using commercially available Serotonin EIA (IBL, Minneapolis, USA). […] Results were read from a standard curve. […]"}}, "data": [{"smiles": "Cn1c(=O)c2c(ncn2CCN2CCN(c3ccccc3Cl)CC2)n(C)c1=O", "note": "[KMUP-1, 7-[2-[4-(2-chlorophenyl)piperazinyl]ethyl]-1,3-dimethylxanthine]", "values": [{"measurement": "5-HT (10 μM) contractile response in pulmonary artery", "setting": "pulmonary artery rings; 0.1-100 μM", "result": "inhibited"}, {"measurement": "maximum response of pulmonary artery to 5-HT", "setting": "pulmonary artery rings; 10-100 μM, in the presence of L-NAME (100 μM)", "result": "reduced the maximum response"}, {"measurement": "decreased sGCα1 expression by ovalbumine sensitization", "setting": "sGCα1", "result": "significantly reduced"}, {"measurement": "increase in total cells, lymphocytes and eosinophils in the airway lumen", "setting": "BALF cells", "result": "significantly reduced"}, {"measurement": "5-HT-induced RhoA membrane association", "setting": "RhoA", "result": "dose-dependently reversed"}, {"measurement": "plasma concentration of 5-HT", "setting": "5-HT; 1 mg/kg i.p.", "result": "3.2 ± 0.6", "unit": "ng/mL"}, {"measurement": "plasma concentration of 5-HT", "setting": "5-HT; 5 mg/kg p.o.", "result": "3.2 ± 0.5", "unit": "ng/mL"}]}]}
